Source: the NIST ThermoML archive (doi:10.1016/j.fluid.2005.08.021)
± gives the expanded uncertainty stated by the source.

Settings: Crystal; visual observation

SMILES | Normal melting temperature [°C]
Oc1cccc(Cl)c1 [3-chlorophenol] | 32.4 ± 0.4
Oc1ccc(Cl)cc1 [4-chlorophenol] | 42.5 ± 0.4
CC(C)(C)O [2-methylpropan-2-ol] | 25.6 ± 0.4
